Experimental data as given in patent US8895750B2, “Heteroaromatic compounds as BTK inhibitors” (Boehringer Ingelheim International GmbH, priority 2013, dated 2014).

What follows are molecules tested against T1, full-length human His-tagged BTK (Homo sapiens, UniProt Q06187) (assay: BTK HTRF assay (Cisbio KinEASE-TK)). Details: 6 nM BTK, 15 min preincubation at 28° C., 1 uM TK substrate-biotin, 30 uM ATP.
T1 construct: 6 nM of full-length human His-tagged BTK (Life Technologies cat #PV3587); His; purchased Life Technologies PV3587
T1 sequence (Q06187 whole entry): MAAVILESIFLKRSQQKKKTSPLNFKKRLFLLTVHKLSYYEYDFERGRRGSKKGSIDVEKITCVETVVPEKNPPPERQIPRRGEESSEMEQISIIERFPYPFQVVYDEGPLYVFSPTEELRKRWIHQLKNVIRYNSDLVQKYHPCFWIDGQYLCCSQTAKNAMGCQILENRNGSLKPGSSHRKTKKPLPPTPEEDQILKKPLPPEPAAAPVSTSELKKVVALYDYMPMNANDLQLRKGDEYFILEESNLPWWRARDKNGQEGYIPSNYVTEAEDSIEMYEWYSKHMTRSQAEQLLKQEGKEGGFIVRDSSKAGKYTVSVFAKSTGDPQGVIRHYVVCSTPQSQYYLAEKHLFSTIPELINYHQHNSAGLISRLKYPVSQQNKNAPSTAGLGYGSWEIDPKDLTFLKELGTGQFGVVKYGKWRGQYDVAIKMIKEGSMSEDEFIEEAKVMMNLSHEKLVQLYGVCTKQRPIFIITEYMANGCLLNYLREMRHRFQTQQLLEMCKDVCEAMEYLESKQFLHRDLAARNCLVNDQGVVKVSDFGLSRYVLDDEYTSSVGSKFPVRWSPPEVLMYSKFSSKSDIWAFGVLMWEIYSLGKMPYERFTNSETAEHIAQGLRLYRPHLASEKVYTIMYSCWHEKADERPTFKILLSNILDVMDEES
Type: biochemical
Description: An HTRF assay (Cisbio KinEASE-TK cat #62TK0PEC) was performed to quantitate the ability of test compounds to inhibit BTK mediated phosphorylation of substrate. Assays were assembled in 384 well plates where 6 nM of full-length human His-tagged BTK (Life Technologies cat #PV3587) and test compound at varying concentrations were preincubated for 15 minutes at 28° C. Then, 1 uM of TK substrate-biotin and 30 uM ATP were added and incubated for an additional 30 minutes at 28° C. Phospohrylation was detected by adding 62.5 nM Streptavidin-XL665 and TK-Antibody Cryptate diluted 1:100 in HTRF detection buffer (Cisbio cat #62SDBRDF) and incubated for 60 minutes at RT. The plate was read on an Envision plate reader and the fluoresence is measured at 620 nm (cryptate) and 665 nm (XL665). A ratio is calculated (665/620) and converted to POC relative to control and blank wells.
50 mM HEPES (Invitrogen #15630), 0.01% Brij-35 (sigma #B4184), 10 mM MgC12 (Sigma M1028), 1 mM EGTA (Ambion AM9262) and 100 uM sodium orthovanedate (Sigma S6508), 1 mM DTT (Sigma D5545) and 10 nM supplement enzyme buffer (Cisbio cat#61SEBALB).

Row | SMILES | IC50 [nM]
1 | C=CC(=O)N1CCC2(C1)CN(c1nc(-c3ccc(Oc4ccccc4)cc3)c(C(N)=O)s1)C2 [Example 1] | 8.5
2 | C=CC(=O)N(C)C1CCN(c2nc(-c3ccc(Oc4ccccc4)cc3)c(C(N)=O)s2)CC1 [Example 2] | 4.8
3 | CC#CC(=O)N(C)C1CCN(c2nc(-c3ccc(Oc4ccccc4)cc3)c(C(N)=O)s2)CC1 [Example 3] | 2.6
4 | CC#CC(=O)N[C@@H]1CCCN(c2nc(-c3ccc(Oc4ccccc4)cc3)c(C(N)=O)s2)C1 [Example 4] | 95
5 | C=CC(=O)N[C@@H]1CCCN(c2nc(-c3ccc(Oc4ccccc4)cc3)c(C(N)=O)s2)C1 [Example 5] | 13
6 | C=CC(=O)N1CCN(c2nc(-c3ccc(Oc4ccccc4)cc3)c(C(N)=O)s2)CC1 [Example 6] | 0.3
7 | CC#CC(=O)N1CCN(c2nc(-c3ccc(Oc4ccccc4)cc3)c(C(N)=O)s2)CC1 [Example 7] | 0.67
8 | C=CC(=O)N1CC2(CCN(c3nc(-c4ccc(Oc5ccccc5)cc4)c(C(N)=O)s3)C2)C1 [Example 8] | 5.6
9 | CC#CC(=O)N1CC2(CCN(c3nc(-c4ccc(Oc5ccccc5)cc4)c(C(N)=O)s3)C2)C1 [Example 9] | 4.3
10 | CN(C)C/C=C/C(=O)N1CC2(CCN(c3nc(-c4ccc(Oc5ccccc5)cc4)c(C(N)=O)s3)C2)C1 [Example 10] | 110
11 | CC#CC(=O)N1CC2(C1)CN(c1nc(-c3ccc(Oc4ccccc4)cc3)c(C(N)=O)s1)C2 [Example 11] | 8.8
12 | C=CC(=O)N1CC2(C1)CN(c1nc(-c3ccc(Oc4ccccc4)cc3)c(C(N)=O)s1)C2 [Example 12] | 4.1
13 | CN(C)C/C=C/C(=O)N1CC2(C1)CN(c1nc(-c3ccc(Oc4ccccc4)cc3)c(C(N)=O)s1)C2 [Example 13] | 510
14 | C/C=C/C(=O)N1CC2(C1)CN(c1nc(-c3ccc(Oc4ccccc4)cc3)c(C(N)=O)s1)C2 [Example 14] | > 1000
15 | NC(=O)c1sc(N2CC3(CN(C(=O)/C=C/CN4CCOCC4)C3)C2)nc1-c1ccc(Oc2ccccc2)cc1 [Example 15] | > 1000
16 | CC#CC(=O)N1C[C@@H]2C[C@H]1CN2c1nc(-c2ccc(Oc3ccccc3)cc2)c(C(N)=O)s1 [Example 16] | 1.2
17 | C=CC(=O)N1CCN(c2nc(-c3ccc(Oc4ccccc4)cc3)c(C(N)=O)s2)[C@@H](C)C1 [Example 17] | 0.87
18 | CC#CC(=O)N1[C@@H]2CC[C@H]1CN(c1nc(-c3ccc(Oc4ccccc4)cc3)c(C(N)=O)s1)C2 [Example 18] | 0.62
19 | C=CC(=O)N1[C@@H]2CC[C@H]1CN(c1nc(-c3ccc(Oc4ccccc4)cc3)c(C(N)=O)s1)C2 [Example 19] | 0.48
20 | C[C@H](Cl)C(=O)N1CC2(C1)CN(c1nc(-c3ccc(Oc4ccccc4)cc3)c(C(N)=O)s1)C2 [Example 20] | 350
21 | CC#CC(=O)N1CCN(c2nc(-c3ccc(Oc4ccccc4)cc3)c(C(N)=O)s2)[C@@H](C)C1 [Example 21] | 1.2
22 | CN(C)C/C=C/C(=O)N1CCN(c2nc(-c3ccc(Oc4ccccc4)cc3)c(C(N)=O)s2)CC1 [Example 22] | 2
23 | C=CC(=O)N1CCCC12CCN(c1nc(-c3ccc(Oc4ccccc4)cc3)c(C(N)=O)s1)CC2 [Example 23] | 43

Row | SMILES | IC50 [nM]
24 | CC#CC(=O)N1CCCC12CCN(c1nc(-c3ccc(Oc4ccccc4)cc3)c(C(N)=O)s1)CC2 [Example 24] | 150
25 | CC#CC(=O)N1CCN(c2nc(-c3ccc(Oc4ccccc4)cc3)c(C(N)=O)s2)CC1C (stereo not shown) [Example 25] | 1
26 | CN(C)CCC(=O)N1CCN(c2nc(-c3ccc(Oc4ccccc4)cc3)c(C(N)=O)s2)CC1 [Example 26] | 69
27 | C=CC(=O)N1CCN(c2nc(-c3cnn(Cc4ccccc4)c3)c(C(N)=O)s2)CC1 [Example 27] | 710
28 | CC#CC(=O)N1CCN(c2nc(-c3cnn(Cc4ccccc4)c3)c(C(N)=O)s2)CC1 [Example 28] | > 1000
29 | C=CC(=O)N1CCN(c2nc(-c3ccc(Br)cc3)c(C(N)=O)s2)CC1 [Example 29] | 6.6
30 | CC#CC(=O)N1CCN(c2nc(-c3ccc(Br)cc3)c(C(N)=O)s2)CC1 [Example 30] | 73
31 | CCC(=O)N1CC2(C1)CN(c1nc(-c3ccc(Oc4ccccc4)cc3)c(C(N)=O)s1)C2 [Example 31] | > 1000
32 | C=CC(=O)N1CCN(c2nc(-c3ccc(Oc4ccccc4)nc3)c(C(N)=O)s2)CC1 [Example 32] | 17
33 | CC#CC(=O)N1CCN(c2nc(-c3ccc(Oc4ccccc4)nc3)c(C(N)=O)s2)CC1 [Example 33] | 180
34 | C/C=C/C(=O)N1CCN(c2nc(-c3ccc(Oc4ccccc4)nc3)c(C(N)=O)s2)CC1 [Example 34] | 700
35 | C=CC(=O)NC[C@@H]1CCCN1c1nc(-c2ccc(Oc3ccccc3)cc2)c(C(N)=O)s1 [Example 35] | 11
36 | CC#CC(=O)NC[C@@H]1CCCN1c1nc(-c2ccc(Oc3ccccc3)cc2)c(C(N)=O)s1 [Example 36] | 14
37 | CC(C)(O)C#CC(=O)N1CCN(c2nc(-c3ccc(Oc4ccccc4)cc3)c(C(N)=O)s2)CC1 [Example 37] | 0.65
38 | CC#CC(=O)N1CCN(c2nc(-c3ccc(S(C)(=O)=O)cc3)c(C(N)=O)s2)CC1 [Example 38] | > 1000
39 | NC(=O)c1sc(N2CCN(C(=O)C#CCO)CC2)nc1-c1ccc(Oc2ccccc2)cc1 [Example 39] | 0.69
40 | C=CC(=O)NC[C@H]1CCCN1c1nc(-c2ccc(Oc3ccccc3)cc2)c(C(N)=O)s1 [Example 40] | 120
41 | CC#CC(=O)NC[C@H]1CCCN1c1nc(-c2ccc(Oc3ccccc3)cc2)c(C(N)=O)s1 [Example 41] | 30
42 | NC(=O)c1sc(N2CCN(C(=O)C#CCN3CCOCC3)CC2)nc1-c1ccc(Oc2ccccc2)cc1 [Example 42] | 0.7
43 | CN(C)C/C=C/C(=O)NC[C@@H]1CCCN1c1nc(-c2ccc(Oc3ccccc3)cc2)c(C(N)=O)s1 [Example 43] | 52
44 | CN(C)C/C=C/C(=O)NC[C@H]1CCCN1c1nc(-c2ccc(Oc3ccccc3)cc2)c(C(N)=O)s1 [Example 44] | 560
45 | CC#CC(=O)N1CCN(c2nc(-c3ccc(Oc4ccccc4)cn3)c(C(N)=O)s2)CC1 [Example 45] | 40
46 | CC#CC(=O)N1CCN(c2nc(-c3cccc(C(=O)Nc4ccccc4)c3)c(C(N)=O)s2)CC1 [Example 46] | > 1000
